Measured values reported in PMC8904451, “Novel chalcone-derived pyrazoles as potential therapeutic agents for the treatment of non-small cell lung cancer” (Scientific Reports, 2022).
Read-outs that look alike come from different tables or passages of the source.

How the values were obtained:
[1] = system: H226 cells; assay: MTT cell viability assay, H226; format: cell-based, human; settings: 72 h, MTT, read-out: IC50 ± SD, growth inhibition, H226
Description: (§1) All the synthesized chalcone-derived pyrazoles were evaluated for their antiproliferative activity against three human non-small cell lung cancer cell lines: A-549, H226, and H460, and a nonmalignant human embryonic kidney cell line HEK293. Cisplatin and 5-fluorouracil (5-FU) were used as a reference. Cells were exposed to a range of PCH concentrations (0.5–100 µM) for 72 h and analyzed by 3-(4,5-dimethylthiazol-2-yl)-2,5-diphenyl-2H-tetrazolium bromide (MTT) assay. The results of the studies are expressed as the IC50 concentration that inhibits 50% growth of cells. […] Following treatment with PCH-1, the viability of all the tested cancer cell lines decreased in a concentration-dependent manner.
(§2) The cell viability assay was performed for A-549, H226, H460, and HEK293 cells after treatment with the test compounds by using the 3-(4,5-dimethylthiazol-2-yl)-2,5-diphenyltetrazolium bromide (MTT, Sigma-Aldrich) assay. Briefly, cells were seeded onto 96-well culture plates for attachment. After 24 h, triplicate wells were treated with DMSO (1%) and the agents. After 72 h of incubation at 37 °C in 5% CO2, the MTT solution (0.4 mg/ml) was added to each well. After 2–4 h of incubation, the medium was removed, and the formazan crystals were dissolved in 100 μl of DMSO. The absorption was measured at 450 nm with an ASYS UVM340 microplate reader (Biochrom Ltd.). The 50% inhibitory concentration (IC50) was defined as the concentration that reduced the absorbance of the DMSO-treated wells by 50% of the vehicle. The IC50 values were generated from GraphPad Prism 9 software by plotting the survival curve as a function of dose from 3 independent experiments.

[2] = system: A-549 cells; assay: MTT cell viability assay, A-549; format: cell-based, human; settings: 72 h, MTT, read-out: IC50 ± SD, growth inhibition, A-549
Description: as §1, with “Cells were exposed to a range of PCH concentrations (0.5–100 µM) for 72 h and analyzed by 3-(4,5-dimethylthiazol-2-yl)-2,5-diphenyl-2H-tetrazolium bromide (MTT) assay.” left out
as §2, with “After 72 h of incubation at 37 °C in 5% CO2, the MTT solution (0.4 mg/ml) was added to each well.” left out

[3] = system: HEK293 cells; assay: MTT cell viability assay, HEK293; format: cell-based, human; settings: nonmalignant cells, read-out: IC50 ± SD, growth inhibition, HEK293
Description: as §1, §2

[4] = system: H460 cells; assay: MTT cell viability assay, H460; format: cell-based, human; settings: 72 h, MTT, read-out: IC50 ± SD, growth inhibition, H460
Description: as §1, §2

[5] = system: A-549 cells; assay: Intracellular ROS measurement (H2DCFDA, flow cytometry); format: cell-based, human; settings: A-549, all the tested time points (3, 6, 24 h)
Text: The generation of intracellular reactive oxygen species (ROS) causes an imbalance of cellular redox homeostasis, followed by damage of cellular components and cell death. Therefore, compounds with the ability to produce high levels of ROS and/or inhibit antioxidant processes are often used in anticancer therapies. In the present study, the effect of PCH-1 on ROS generation in A-549 cells was investigated by flow cytometry. As an indicator of ROS generation, the fluorescent probe 2ʹ,7ʹ-dichlorodihydrofluorescein diacetate (H2DCFDA) was used, which undergoes oxidation by ROS to form a highly fluorescent compound 2ʹ,7ʹ-dichlorofluorescein (DCF). As shown in Supplementary Fig. S6 in Supplementary Information, compound PCH-1 induced a massive amount of ROS in A-549 cells in a time-dependent manner. […] Moreover, the induction of ROS was equally high for PCH-1 and the reference compound H2O2 in all the tested time points.
For determination the ROS generation, cells were treated with IC90 of PCH-1, H2O2, or 1% DMSO for 3, 6, and 24 h. Next, a 1 µM CM-H2DCFDA (#C6827; Thermo-Fisher) probe was added to the cells in each plate 30 min before the end of the drug treatment. After incubation cells were collected by trypsinization, stained with 7-Aminoactinomycin D (7-AAD, Sigma-Aldrich), and measured. The analysis was performed with Guava EasyCyte 8 cell sorter (Merck Millipore) and FlowJo software v10. Each experiment was repeated independently three times.

[6] = system: tubulin; assay: HTS-tubulin polymerization assay; format: biochemical; settings: 120-min kinetic reaction, absorbance 340 nm, vs vehicle
Description: To further evaluate whether the tubulin–microtubule system was the target site of PCH-1, in vitro microtubule polymerization assays were performed using the microtubule protein with Paclitaxel and Vincristine as a reference. Paclitaxel and Vincristine are antimitotic drugs that have been commonly used in conventional chemotherapy for decades. In 1979, it was shown that Paclitaxel accelerates the initiation of tubulin fiber polymerization and stabilizes the formed tubulin fibers in vitro, even in the absence of GTP or MAP in the solution[30]. Vincristine, on the other hand, binds to tubulin and inhibits its polymerization.
The assay was performed according to the manufacturer’s instructions. Briefly, compounds were diluted in DMSO to a concentration of 2 mM and then in GTB buffer to a concentration of 50 µM. In the wells of a 96-well plate (UV transparent, half surface wells) previously heated to 37 °C, 10 µl of dilutions of the test compounds were placed in duplicate. The plate was incubated for 2 min at 37 °C, and 100 µl of freshly prepared tubulin solution (4 mg/ml) in GTB-GTP buffer was then added. The plate was immediately placed in a Tecan SPARK 10 M plate reader, and the reaction kinetics were measured with the following settings: absorbance reading: 340 nm, 37 °C, interval: 45 s, number of cycles: 160.

Row | IC50 ([1]; Homo sapiens, NCI-H226) [µM] | IC50 ([2]; Homo sapiens, A549) [µM] | IC50 ([4]; Homo sapiens, NCI-H460) [µM] | SMILES | IC50 ([3]; Homo sapiens, HEK293, 72 h) [µM] | also measured
1 | 24.4 ± 2.13 | 21.5 ± 4.26 | 18.1 ± 2.13 | CC(=O)N1N=C(c2ccc(OC(F)(F)F)cc2)CC1c1ccc2c(c1)OCO2 (centres unmarked) [PCH-6, 1-{5-(2H-1,3-benzodioxol-5-yl)-3-[4-(trifluoromethoxy)phenyl]-4,5-dihydro-1H-pyrazol-1-yl}ethan-1-one] | 42.9 ± 1.23 | –
2 | – | – | – | OO [H2O2, reference compound] | – | induction of ROS, reference compared with PCH-1 [5]: equally high
3 | 86.7 ± 4.7 | > 100 | 63.4 ± 3.34 | COc1ccccc1C1=NN(C(C)=O)C(c2ccc3c(c2)OCO3)C1 (centres unmarked) [PCH-4, 1-[5-(2H-1,3-benzodioxol-5-yl)-3-(2-methoxyphenyl)-4,5-dihydro-1H-pyrazol-1-yl]ethan-1-one] | > 100 | –
4 | 58 ± 2.56 | 60.9 ± 4.3 | 38.8 ± 1.77 | CC(=O)N1N=C(c2ccc3c(c2)OCO3)CC1c1ccc2c(c1)OCO2 (centres unmarked) [PCH-5, 1-[3,5-bis(2H-1,3-benzodioxol-5-yl)-4,5-dihydro-1H-pyrazol-1-yl]ethan-1-one] | 47 ± 3.18 | –
5 | – | – | – | CC(=O)O[C@H]1C(=O)[C@@]2(C)[C@H]([C@H](OC(=O)c3ccccc3)[C@]3(O)C[C@H](OC(=O)[C@H](O)[C@@H](NC(=O)c4ccccc4)c4ccccc4)C(C)=C1C3(C)C)[C@]1(OC(C)=O)CO[C@@H]1C[C@@H]2O [Paclitaxel] | – | effect on tubulin polymerization kinetics [6]: accelerated the nucleation phase and increased the total mass of tubulin polymer
6 | 38.4 ± 3.53 | 79.5 ± 4.97 | 43.8 ± 3.97 | COc1cc2c(cc1C1=NN(C(C)=O)C(c3ccc(O)cc3)C1)SCO2 (centres unmarked) [PCH-9, 1-[5-(4-hydroxyphenyl)-3-(6-methoxy-2H-1,3-benzoxathiol-5-yl)-4,5-dihydro-1H-pyrazol-1-yl]ethan-1-one] | 34.4 ± 2.01 | –
7 | 41.5 ± 1.12 | > 100 | 30.2 ± 2.14 | COc1ccc(C2=NN(C(C)=O)C(c3ccc4c(c3)CCO4)C2)cc1 (centres unmarked) [PCH-7, 1-[5-(2,3-dihydro-1-benzofuran-5-yl)-3-(4-methoxyphenyl)-4,5-dihydro-1H-pyrazol-1-yl]ethan-1-one] | > 100 | –
8 | – | – | – | N.N.[Cl][Pt][Cl] [Cisplatin, reference compound] | – | IC50 [1]: 17.5 ± 2.12 µM; IC50 [2]: 29.01 ± 0.12 µM; IC50 ([3]; 72 h): 28.4 ± 1.97 µM; IC50 [4]: 21.5 ± 1.87 µM
9 | 61.1 ± 3.12 | > 100 | 30.2 ± 2.14 | COc1ccc(C2=NN(C(C)=O)C(c3cc4c(cc3OC)OCO4)C2)cc1 (centres unmarked) [PCH-8, 1-[5-(6-methoxy-2H-1,3-benzodioxol-5-yl)-3-(4-methoxyphenyl)-4,5-dihydro-1H-pyrazol-1-yl]ethan-1-one] | > 100 | –
10 | 4.01 ± 0.76 | 8.12 ± 1.01 | 4.08 ± 0.43 | O=c1[nH]cc(F)c(=O)[nH]1 [5-FU, 5-fluorouracil, reference compound] | 11.1 ± 1.53 | –
11 | 1.03 ± 0.16 | 0.54 ± 0.21 | 0.05 ± 0.01 | COc1cc([C@@H]2c3cc4c(cc3[C@@H](O[C@@H]3O[C@@H]5CO[C@@H](C)O[C@H]5[C@H](O)[C@H]3O)[C@H]3COC(=O)[C@H]23)OCO4)cc(OC)c1O [Etoposide, reference compound] | 1.91 ± 0.97 | –
12 | 86.7 ± 0.92 | > 100 | 24.5 ± 1.74 | CC(=O)N1N=C(c2ccc(C)cc2)CC1c1ccc2c(c1)OCO2 (centres unmarked) [PCH-3, 1-[5-(2H-1,3-benzodioxol-5-yl)-3-(4-methylphenyl)-4,5-dihydro-1H-pyrazol-1-yl]ethan-1-one] | > 100 | –
13 | 40.5 ± 3.52 | > 100 | 43.8 ± 1.12 | COc1cc(C2=NN(C(C)=O)C(c3ccc4c(c3)OCO4)C2)cc(OC)c1OC (centres unmarked) [PCH-2, 1-[5-(2H-1,3-benzodioxol-5-yl)-3-(3,4,5-trimethoxyphenyl)-4,5-dihydro-1H-pyrazol-1-yl]ethan-1-one] | > 100 | –
14 | – | – | – | CC[C@]1(O)C[C@H]2CN(CCc3c([nH]c4ccccc34)[C@@](C(=O)OC)(c3cc4c(cc3OC)N(C=O)[C@H]3[C@@](O)(C(=O)OC)[C@H](OC(C)=O)[C@]5(CC)C=CCN6CC[C@]43[C@@H]65)C2)C1 [Vincristine, vincristine] | – | effect on tubulin polymerization kinetics [6]: extended the nucleation time and reduced the total mass of tubulin polymer
